Measurements from patent US20250325655A1, “VACCINE ADJUVANT, AND PREPARATION METHOD THEREFOR AND USE THEREOF” (CHENGDU MAXVAX BIOTECHNOLOGY LLC, priority 2021, published 2025).

Columns and labels:
[1] = Toxicology studies of the present product; conditions: poly (I:C) adsorbed onto the mixed liposomes
Text: In order to maintain stability of physical properties of products, the mixed liposomes containing the cationic liposomes and the neutral liposomes (consisting of […]) were chosen in the present disclosure to adsorb poly (I:C). Poly (I:C) adsorbed by the intramuscular administered mixed liposomes could be passively or actively delivered to antigen presenting cells (APCs), to limit its interaction with non-phagocytic cells, and regulate systemic secretion of cytokines generated thereby.

[2] = cancer patients, QS-21 dose 100~200 μg, cited from earlier work

For “polyinosinic: polycytidylic acid [poly (I:C)]”, the safety [1] was “can effectively improve its safety”.
In the case of `CCC(C)C(CC(O)CC(=O)O[C@@H]1[C@H](O)[C@H](C)O[C@H](OC(=O)[C@@H]2CC(C)(C)C[C@@H]3C4=CCC5[C@@]6(C)CC[C@H](O[C@@H]7O[C@H](C(=O)O)[C@@H](O)[C@H](O[C@H]8OC[C@@H](O)[C@H](O)[C@H]8O)[C@H]7O[C@@H]7O[C@H](CO)[C@H](O)[C@H](O)[C@H]7O)[C@@](C)(C=O)[C@@H]6CC[C@@]5(C)[C@]4(C)C[C@@H](O)C32)[C@H]1O[C@@H]1O[C@@H](C)[C@H](O[C@H]2OC[C@@H](O)[C@H](O[C@H]3OC[C@](O)(CO)[C@H]3O)[C@H]2O)[C@@H](O)[C@H]1O)OC(=O)CC(O)CC(O[C@@H]1O[C@@H](CO)[C@H](O)[C@H]1O)C(C)CC` (stereo partly drawn) [QS-21, Quillaja saponaria saponin 21], the “erythema and induration at the injection site” value ([2]; most patients) is given as 2-10 cm and the dose-limiting toxicity [2] is given as “No dose-limiting toxicity”.
